We go through nine molecules from BindingDB's records for patent US20250091994 (Kobe University, 2025).

As a reminder, the IC50 is the concentration that inhibits the measured activity by half. A higher IC50 goes with weaker potency.

Chain of GTPase HRas [G12V] (P01112 whole entry G12V, looked up): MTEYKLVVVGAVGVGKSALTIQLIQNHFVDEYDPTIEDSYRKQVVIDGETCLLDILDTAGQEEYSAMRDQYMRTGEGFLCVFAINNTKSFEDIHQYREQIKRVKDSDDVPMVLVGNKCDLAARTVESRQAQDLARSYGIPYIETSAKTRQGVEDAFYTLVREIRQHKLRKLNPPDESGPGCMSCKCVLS

This experiment concerns the target GTPase HRas [G12V] (Homo sapiens, UniProt P01112, G12V). In words: In Vitro Ras-Raf Binding Inhibitory Activity Assay. Here is the method:
The in vitro Ras-Raf binding inhibitory activity of the compound of the present invention was evaluated by an ELISA method described below. GST-c-Raf-1 RBD diluted with a Ras-Raf binding buffer (50 mM Tris-HCl pH7.4, 150 mM NaCl, 5 mM MgCl2, 1 mM EDTA, and 1% Triton-X100) was added to each well of a glutathione-coated 96-well plate (Thermo Fisher Scientific.), and was incubated at 30° C. for 1 hour, to immobilize Raf on the well. The unbound free Raf was eliminated by washing the well with the Ras-Raf binding buffer three times. Subsequently, GTPTS-bound HRasG12V diluted with the Ras-Raf binding buffer and each compound solution (final DMSO concentration: 10%) were applied to each well, and the resulting mixture was then incubated at 30° C. for 1 hour, so that Ras and Raf were allowed to bind to each other. Thereafter, the plate was washed with the Ras-Raf binding buffer twice, and was then subjected to a blocking treatment at room temperature for 20 minutes, using TBS-Tween {10 mM Tris-HCl pH 7.4, 150 mM NaCl, and 0.05% (w/v) Tween-20}-5% (w/v) bovine serum albumin (BSA). After that, an anti-HRas antibody (C-20, Santa Cruz) or an anti-HRas antibody (259, Santa Cruz), which had been 1000 times diluted with TBS-Tween-5% BSA, was added to the reaction mixture, and incubated at room temperature for 1 hours. After the treatment with the primary antibody, the plate was washed with TBS-Tween-5% BSA three times, and a horseradish peroxidase-labeled secondary antibody against rabbit immunoglobulin G (GE Healthcare) of 1000 times diluted with TBS-Tween-5% BSA, was added to the plate, followed by incubation at room temperature for 1 hour. After the treatment with the secondary antibody, the plate was washed with TBS-Tween-5% BSA three times, and a substrate solution (TMB) was then added to the plate, followed by incubation at room temperature for 15 minutes for coloration. Finally, 2 M H2SO4 was added to stop color development (coloration reaction kit: Nacalai Tesque).
With `CC(=O)N1/C(=C\c2ccc(OCC(=O)N3CCOCC3)cn2)C(=O)c2ccccc21` [US20250091994, Example 22], the IC50 was 13000 nM. This lies in the double-digit micromolar range. To `CCn1cc(-c2cc(/C=C3/C(=O)c4ccccc4N3C(C)=O)nc3ccc(C(=O)N4CCOCC4)cc23)cn1` [US20250091994, Example 178] belongs 800 nM; to `CC(=O)N1C(=Cc2cc(-c3ccc4c(c3)CCNC4=O)c3ccccc3n2)C(=O)c2ccccc21` [US20250091994, Example 190], 900 nM. On to `CC(=O)N1/C(=C\c2cc(C(N)=O)c3cc(C(=O)N4CCOCC4)ccc3n2)C(=O)c2ccccc21` [US20250091994, Example 111], for which the IC50 is 1000 nM. The value for `CC(=O)N1/C(=C/c2nc(C(=O)N3CCOCC3)cs2)C(=O)c2ccccc21` [US20250091994, Example 55] was 6400 nM; that for `CC(=O)N1CCc2cc(-c3cc(/C=C4/C(=O)c5ccccc5N4C(C)=O)nc4ccc(C(=O)N5CCOCC5)cc34)ccc2C1` [US20250091994, Example 144] was 800 nM. `CC(=O)N1C(=Cc2cc(-c3ccccc3)c3cc(C(=O)N4CCOCC4)ccc3n2)C(=O)c2ccccc21` [US20250091994, Example 83]: the IC50 came to 840 nM. This IC50 and that of the molecule before are within 1.5-fold of each other. Regarding `CC(=O)N1/C(=C\c2ccc3cc(CNC(=O)CN4CCOCC4)ccc3n2)C(=O)c2ccccc21` [US20250091994, Example 80], the IC50 was found to be 900 nM. To `CC(=O)Nc1cc(/C=C2/C(=O)c3ccccc3N2C(C)=O)nc2ccc(C(=O)N3CCOCC3)cc12` [US20250091994, Example 113] belongs 680 nM.
